Assays:
[1] = test system: Neurons from the brain's hippocampus; experiment: In vitro neurite extension (Map2a staining per neuron); type: cell-based, rat; settings: for % Map2a Staining/Neuron: 7 days incubation
Description: Neurons from the brain's hippocampus were derived from embryonic day (E17) rat pups and incubated with QBA for 7 days. The cultures were then stained with neuron-specific marker, microtubule associated protein-2a (Map2a) and cell nuclei were stained with 4′,6-diamidino-2-phenylindole (DAPI). Fluorescent images of the staining were then captured with a confocal microscope. The staining was quantitated by dividing the percent area of the Map2a staining by the number of neurons.

older rats = experiment: Elevated plus-maze, older rats fed QBA; type: in vivo, rat; settings: for Time (s) in Open Arm: rats 18 months old, 5-min test
Description: The dose-response characteristics of 10-Hydroxy-2-decenoic acid's (QBA's) potential brain health benefits during aging were assessed for mood in older rats (18-20 months old).
Rats were fed QBA and subjected to an elevated plus-maze. The elevated plus-maze was elevated ˜85 cm above the floor and consisted of two open and two closed arms of the same size (50×10 cm). The closed arms were surrounded by walls 40 cm high, and the arms were constructed of black acrylic slabs that radiated from a central platform (10×10 cm) to form a plus sign. Each rat was placed in the central platform facing one of the open arms, and its behavior was recorded during a 5-min testing period with video capture software. More time spent in the open arms is an indication of reduced anxiety-like state. Rats were tested at 18 months old (N=11-13 per group).

[2] = test system: RAW264.7 mouse macrophage cell line; experiment: IL-1β levels after LPS stimulation; type: cell-based; settings: for IL-1β (pg/mL)/Cell Numbers: 24 h
Description: Cultures of the RAW264.7 mouse macrophage cell line were pre-treated with 10-Hydroxy-2-decenoic acid (QBA) for 1 hour prior to stimulation with lipopolysaccharide (LPS, 100 ng/mL). After 24 hours of incubation, interleukin […] (IL-1β) and tumor necrosis factor-α (TNFα) levels were determined by Luminex technology and cell numbers were measured using Alamar Blue. Results are given as a ratio of cytokine concentration/cell number.

older male rats = experiment: Learning acquisition, Barnes maze task; type: in vivo, rat; settings: for Escape Latency: average of two trial runs
Description: The dose-response characteristics of 10-Hydroxy-2-decenoic acid's (QBA's) potential brain health benefits during aging were assessed for cognitive performance in older male rats (16-17 months old; N=10-12 per group). Rats were fed QBA for 4-5 months prior to behavioral assessment. Spatial learning and memory performance was tested using the Barnes circular maze which consists of a 4-ft diameter, gray circular platform raised 90 cm above the floor level with 20 holes, 10 cm in diameter, evenly spaced around the circumference. Animals were trained to locate a black escape tunnel beneath one of the holes in response to aversive light stimuli. The latency to enter the escape box in each of two trials across four trial days was recorded. Shorter latencies across and within trial days is an indication of better cognitive performance.

[3] = Weight after Barnes maze psychological stress (Example 9); type: in vivo, rat
Description: Aged male rats were fed 10-Hydroxy-2-decenoic acid (QBA) for approximately […] from 12-months to 20-months of age and the weight of rats was recorded (N=11-14 per group). During the last month of QBA feeding animals were subjected to the psychological stress of the Barnes maze.

[4] = test system: Young adult female Long-Evans rats; experiment: Conception index of female rats with abnormal ovulatory cycles; type: in vivo, rat; settings: for Conception Index (%): eight weeks, then mated
Description: Young adult female Long-Evans rats (3 months-old) with abnormal ovulatory cycles were fed diets containing 10-Hydroxy-2-decenoic acid (QBA) or no QBA for eight (8) weeks and then mated with a male rat. Female rats having normal ovulatory cycles were used as positive controls and were not fed QBA. The conception index was determined. The conception index is a measure of conception efficiency and is equal to the number of pregnancies divided by the number of discernable mating sessions multiplied by 100.

stem cells = settings: Hattori et al. 2009; cited from earlier work

O=C(O)C=CCCCCCCCO [QBA, 10-Hydroxy-2-decenoic acid]
% Map2a Staining/Neuron ([1]; QBA 0.10 μM): 0.29%
% Map2a Staining/Neuron ([1]; QBA 0.30 μM): 0.32%
% Map2a Staining/Neuron ([1]; QBA 1.00 μM): 0.30%
% Map2a Staining/Neuron ([1]; QBA 3.00 μM): 0.31%
% Map2a Staining/Neuron ([1]; QBA 10.00 μM): 0.32%
% Map2a Staining/Neuron ([1]; QBA 30.00 μM): 0.32%
% Map2a Staining/Neuron ([1]; QBA 100.00 μM): 0.27%
growth of brain cells in culture ([1]; summary of Table 1): increased the growth of brain cells in culture
Time (s) in Open Arm (older rats; QBA 0.4 mg/kg/day): 48.5 s
Time (s) in Open Arm (older rats; QBA 4 mg/kg/day): 52.2 s
Time (s) in Open Arm (older rats; QBA 12 mg/kg/day): 37.1 s
anxiety as measured by the time in the open arms of the elevated plus maze (older rats; QBA 24 mg/kg/d, 15-18-month old male rats): decreased anxiety
Time (s) in Open Arm (older rats; QBA 24 mg/kg/day): 69.8 s
IL-1β (pg/mL)/Cell Numbers ([2]; QBA 50 μM 1 h before LPS 100 ng/mL): 0.00386 (pg/mL)/Cell Numbers
IL-1β (pg/mL)/Cell Numbers ([2]; QBA 100 μM 1 h before LPS 100 ng/mL): 0.00402 (pg/mL)/Cell Numbers
IL-1β (pg/mL)/Cell Numbers ([2]; QBA 500 μM 1 h before LPS 100 ng/mL): 0.00242 (pg/mL)/Cell Numbers
IL-1β (pg/mL)/Cell Numbers ([2]; QBA 1000 μM 1 h before LPS 100 ng/mL): 0.00242 (pg/mL)/Cell Numbers
IL-1β (pg/mL)/Cell Numbers ([2]; QBA 2500 μM 1 h before LPS 100 ng/mL): 0.00097 (pg/mL)/Cell Numbers
IL-1β (pg/mL)/Cell Numbers ([2]; QBA 5000 μM 1 h before LPS 100 ng/mL): 0.00067 (pg/mL)/Cell Numbers
production of IL-1β in immune cells ([2]; summary of Table 9): reduced the production
Escape Latency (older male rats; QBA 0.4 mg/kg/day, trial day 1): 98.8 s
Escape Latency (older male rats; QBA 0.4 mg/kg/day, trial day 2): 63.4 s
Escape Latency (older male rats; QBA 0.4 mg/kg/day, trial day 3): 63.4 s
Escape Latency (older male rats; QBA 0.4 mg/kg/day, trial day 4): 24.7 s
Escape Latency (older male rats; QBA 4 mg/kg/day, trial day 1): 106.7 s
Escape Latency (older male rats; QBA 4 mg/kg/day, trial day 2): 43.4 s
Escape Latency (older male rats; QBA 4 mg/kg/day, trial day 3): 43.4 s
Escape Latency (older male rats; QBA 4 mg/kg/day, trial day 4): 23.6 s
Escape Latency (older male rats; QBA 12 mg/kg/day, trial day 1): 79.3 s
Escape Latency (older male rats; QBA 12 mg/kg/day, trial day 2): 30.7 s
Escape Latency (older male rats; QBA 12 mg/kg/day, trial day 3): 30.7 s
Escape Latency (older male rats; QBA 12 mg/kg/day, trial day 4): 24.3 s
Escape Latency (older male rats; QBA 24 mg/kg/day, trial day 1): 109.8 s
Escape Latency (older male rats; QBA 24 mg/kg/day, trial day 2): 48.4 s
Escape Latency (older male rats; QBA 24 mg/kg/day, trial day 3): 48.4 s
Escape Latency (older male rats; QBA 24 mg/kg/day, trial day 4): 34.3 s
speed of learning acquisition (Barnes maze task) (older male rats; male rats aged 16-17 months): increased the speed of learning acquisition
% Change (Weight after Barnes maze) ([3]; QBA 12 mg/kg/day, behavior stress day 7): −0.15%
% Change (Weight after Barnes maze) ([3]; QBA 12 mg/kg/day, behavior stress day 14): −0.20%
% Change (Weight after Barnes maze) ([3]; QBA 12 mg/kg/day, behavior stress day 21): 0.56%
% Change (Weight after Barnes maze) ([3]; QBA 12 mg/kg/day, behavior stress day 28): 0.63%
% Change (Weight after Barnes maze) ([3]; QBA 12 mg/kg/day, behavior stress day 35): 0.87%
% Change (Weight after Barnes maze) ([3]; QBA 24 mg/kg/day, behavior stress day 7): −0.15%
% Change (Weight after Barnes maze) ([3]; QBA 24 mg/kg/day, behavior stress day 14): 0.02%
% Change (Weight after Barnes maze) ([3]; QBA 24 mg/kg/day, behavior stress day 21): 0.54%
% Change (Weight after Barnes maze) ([3]; QBA 24 mg/kg/day, behavior stress day 28): 0.74%
% Change (Weight after Barnes maze) ([3]; QBA 24 mg/kg/day, behavior stress day 35): 1.32%
weight change versus control, repeated measures ANOVA ([3]; all doses versus 0 mg/kg/day QBA or 0 mg/kg/day QBA+0.07% DHA): small but significant increase
weight loss associated with the psychological stress ([3]; summary of Table 15): mitigated weight loss
Conception Index (%) ([4]; QBA 0.4 mg/kg/day): 112.5%
Conception Index (%) ([4]; QBA 4 mg/kg/day): 107.7%
Conception Index (%) ([4]; QBA 12 mg/kg/day): 225.0%
Conception Index (%) ([4]; QBA 24 mg/kg/day): 200.0%
conception index ([4]; summary of Table 17): increased the conception index
neurogenesis and gliogenesis from stem cells (stem cells): stimulation of neurogenesis from stem cells while inhibiting gliogenesis
